From patent US20030232851A1, “Viral treatment” (The Procter & Gamble Company, priority 1999, published 2003)
pEC50, pIC50: −log10 of the molar value. Where “and” joins values, the source holds several entries; their conditions need not be identical. Equal entries are not always repeated.

Tests used:
vero cells = assay: Herpes simplex testing: toxicity (TC50); parameters: unit not given beside the values
[1] = test system: HHV8 cell line, TPA-induced BCBL-1 cells; assay: Kaposi's Sarcoma (HHV8) in vitro test, DNA copy number; type: cell-based
Description: The DNA copy number and the toxicity value were measured and compared with Cidofovir.

HIV-1 protease = molecular target: T1, HIV-1 protease (Human immunodeficiency virus type 1 group M subtype B, UniProt P04585); assay: Protease inhibition assay (fluorometric); type: biochemical; conditions: for Protease Inhibition, sample reading: sample 1, sample 2
T1 construct: precludes use of the fluorometric HIV-1 protease assay; purchased Bachem
Description: Protease inhibition is evaluated using a fluorometric method. Enzyme (Bachem) is diluted to 116 μgm/ml in 50 mM NaOAC, 5 mM DTT, 2 mM EDTA, 10% glycerol (pH 5.0) and stored as 10 μl samples at −20° C., HIV protease substrates I (Molecular Probes) is diluted to a working concentration of 0.32 nmoles/μl. Enzyme (20 μl) and drug (20 μl) are added to each well of a microtiter plate as appropriate. Positive and negative controls are evaluated in parallel. Fluorescence is quantitated on Labsystems Fluroskan II using 355 nm/460 nm at 37° C. at time zero and at 30 minute intervals for 2 hours. In instances where autofluorescence precludes use of the fluorometric HIV-1 protease assay or confirmation of a result is required, an HPLC based protease assay can be employed.

HIV-1 integrase = HIV-1 integrase (Human immunodeficiency virus type 1 group M subtype B, UniProt P04585); assay: HIV-1 integrase inhibition assay; type: biochemical; parameters: HIV-1 Integrase Inhibition, sample reading / HIV-1 Integrase Inhibition, mean: unit not given here; conditions: for HIV-1 Integrase Inhibition, sample reading: sample 1, sample 2
From the text: A biochemical integrase assay described by Craigie et at (HIV, vol. 2: A practical Approach) Biochemistry, Molecular Biology and Drug Discovery, Ed. J. Kam 1995) to screen agents for their ability to inhibit HIV-1 integrase. In this system, a kinased oligonucleotide serves as the target of 3′ processing and the subsequent strand transfer reaction. The 3′ processing reaction involves the removal of 2 nucleotides from the 3′ ends of the substrate and this is followed by the strand transfer reaction in which the 3′ ends are joined to the exposed 5′ ends. The 20 μl reaction mixture contains 25 mM MOPS (pH 7.2), […] BSA, 10 mM β-mercaptoethanol, 10% glycerol, 7.5 mM MnCl2, 25 nM (7 ng) substrate (Oligo's Etc., Wilsonville, Oreg.) and 200 nM (128 ng) integrase (NIAID AIDS Research and Reference Reagent Program, Bethesda, Md.). The reaction proceeds at 37° C. for 1-2 hours and is terminated by the addition of 20 μl of sequencing stop solution (JSB Amersham, Arlington Heights, Ill.). The reaction products are visualized by autoradiography following electrophoresis in 15% polyacrylamide 6M Urea gel. The substrate migrates as a 30 mer, the product of 3′ processing migrates as an N-2 band and the strand transfer products migrate more slowly at various sizes larger than the substrate.

c1csc(-c2nc3cccnc3[nH]2)c1 [2-(2-thienyl)-imidazolo [4,5-b]pyridine]
TC50 (vero cells): 82.8
DNA Copy Number, % virus control ([1]; 0.64 μM): 97.2%
DNA Copy Number, average ([1]; 0.64 μM): 14122.1 per 3 μl
DNA Copy Number, samples 1-3 ([1]; 0.64 μM): 16524.7 per 3 μl and 16524.9 per 3 μl and 12316.8 per 3 μl
DNA Copy Number, % virus control ([1]; 2 μM): 94.0%
DNA Copy Number, average ([1]; 2 μM): 13653.8 per 3 μl
DNA Copy Number, samples 1-3 ([1]; 2 μM): 13427.5 per 3 μl and 11819.4 per 3 μl and 15714.5 per 3 μl
DNA Copy Number, % virus control ([1]; 6.4 μM): 95.5%
DNA Copy Number, average ([1]; 6.4 μM): 13876.4 per 3 μl
DNA Copy Number, samples 1-3 ([1]; 6.4 μM): 11795.6 per 3 μl and 15297.5 per 3 μl and 14536.1 per 3 μl
DNA Copy Number, % virus control ([1]; 20 μM): 77.9%
DNA Copy Number, average ([1]; 20 μM): 11321.8 per 3 μl
DNA Copy Number, % virus control ([1]; 64 μM): 2.9%
DNA Copy Number, average ([1]; 64 μM): 427.3 per 3 μl
DNA Copy Number, % virus control ([1]; 200 μM): 13.9%
DNA Copy Number, average ([1]; 200 μM): 2020.8 per 3 μl
DNA Copy Number, samples 1-3 ([1]; 200 μM): 1680.4 per 3 μl and 2041.2 per 3 μl and 2340.8 per 3 μl
pIC50 ([1]; Human gammaherpesvirus 8, BCBL1): 4.44
Protease Inhibition, mean (HIV-1 protease; 1 nM): 24.7
Protease Inhibition, sample reading (HIV-1 protease; 1 nM): 27.1 and 22.4
Protease Inhibition, mean (HIV-1 protease; 10 nM): 36.7
Protease Inhibition, sample reading (HIV-1 protease; 10 nM): 33.2 and 40.2
Protease Inhibition, mean (HIV-1 protease; 100 nM): 76.1
Protease Inhibition, sample reading (HIV-1 protease; 100 nM): 75.4 and 76.8
Protease Inhibition, mean (HIV-1 protease; 1000 nM): 213.8
Protease Inhibition, sample reading (HIV-1 protease; 1000 nM): 219.4 and 208.2
pEC50 (HIV-1 integrase): < 3.30
HIV-1 Integrase Inhibition, mean (HIV-1 integrase; 0.1 μg/ml): 10577
HIV-1 Integrase Inhibition, sample reading (HIV-1 integrase; 0.1 μg/ml): 11155.2 and 9998.8
HIV-1 Integrase Inhibition, mean (HIV-1 integrase; 1 μg/ml): 10104
HIV-1 Integrase Inhibition, sample reading (HIV-1 integrase; 1 μg/ml): 10640.4 and 9568.4
HIV-1 Integrase Inhibition, mean (HIV-1 integrase; 10 μg/ml): 10580
HIV-1 Integrase Inhibition, sample reading (HIV-1 integrase; 10 μg/ml): 10814.1 and 10345.1
HIV-1 Integrase Inhibition, mean (HIV-1 integrase; 100 μg/ml): 7214
HIV-1 Integrase Inhibition, sample reading (HIV-1 integrase; 100 μg/ml): 7639.4 and 6788.6
